Reference: patent US20190070204A1, “PROLIFERATIVE AGENT FOR FAECALIBACTERIUM” (B FOOD SCIENCE CO., LTD., priority 2016, published 2019)

What was measured:
[1] = test system: Faecalibacterium; experiment: Faecalibacterium proliferative effect in vivo: cell number in feces of infants by real-time PCR; parameters: species or system human (infants); details: for mean number of cells of Faecalibacterium (log10) / mean number of cells of Faecalibacterium per g feces: infants, oral, daily 1-3 g; for Significant difference (vs 0 week): Wilcoxon signed rank test; for cell number of Faecalibacterium over study period (in words): 12-week study
Excerpt: 58 infants from 6 months old to 6 years old were divided into 2 groups of 29 infants and they were designated 1-Kestose Group and Maltose Group. 1-Kestose Group took 1-kestose (purity 98% by mass or more, B Food Science Co., Ltd.) orally and Maltose Group took maltose (purity of 92% by mass or more, “Sunmalt-S” powder, Sanwa Starch Co., Ltd.) orally every day during the study period. The test period was 12 weeks. The daily intake of 1-kestose or maltose was 1 g (estimated intake; 0.121 g/kg body weight/day) for infants under 1 year old, 2 g (estimated intake; 0.169 g/kg body weight/day) for infants from 1 to 3 years old, and 3 g (estimated intake; 0.170 g/kg body weight/day) for infants from 4 to 6 years old. […] The estimated intake mentioned above was calculated based on the age-specific body weight data published in “2010 National growth survey on preschool children of the Ministry of Health, Labour and Welfare”. More specifically, the male and female medians were separately calculated from the minimums and the maximums of the body weight data within the age ranges of the study participants of Example 2 and the means of the medians were calculated. Subsequently, the male and female means of the means of the medians were calculated as estimated body weights. The estimated body weights were 8.26 kg for under 1 year old, 11.85 kg for 1 to 3 years old, and 17.62 kg for 4 to 6 years old. […] The numbers of cells of Faecalibacterium in the recovered feces were quantified by real-time PCR. Specifically, genomic DNA was first extracted from the feces using the reagent for genome extraction “Ultra Clean Soil DNA Isolation Kit” (Mo Bio Laboratories Inc.) and “High Pure PCR Template Preparation Kit” (Roche). […] The standard curve was generated based on the result of real-time PCR performed under the same conditions using genomic DNA extracted in the same way from Faecalibacterium prausnitzii strain ATCC27768 strain cultured in pure culture and counted under a microscope. The mean of cell numbers was calculated for each group.

[2] = test system: Faecalibacterium prausnitzii strain ATCC27768; experiment: Faecalibacterium proliferative effect in vitro: culture turbidity with oligosaccharide added; format: cell-based; details: for turbidity (OD value) at 660 nm: oligosaccharide 5.0 g/L, 37° C., anaerobic
Experimental: Liquid media of the following composition was prepared sterile. 1-Kestose (purity of 99% by mass, B Food Science Co., Ltd.), nystose (purity of 98% by mass, Wako Pure Chemical Industries, Ltd.), xylooligosaccharide (purity of 99% by mass, B Food Science Co., Ltd.), raffinose (purity of 98% by mass, Meiji Food Materia Co., Ltd.) and lactosucrose (purity of 89% by mass, Ensuiko Sugar Refining Co., Ltd.) were used as oligosaccharides. Moreover, a liquid medium of the following composition with no oligosaccharide was also prepared as a control.
[Composition of Liquid Medium/Per L] (Final pH: 7.0)
Casein digest 15.0 g, yeast extract 5.0 g, L-cystine 0.5 g, sodium chloride 2.5 g, thioglycolic acid 0.5 g, tryptophan 25 mg, hemin proper quantity, vitamin K1 proper quantity, oligosaccharide 5.0 g.
A prepared liquid medium was inoculated with Faecalibacterium prausnitzii strain ATCC27768 precultured until confluent to a turbidity with an OD (Optical Density) value at 660 nm of 0.05 to 0.06. The inoculated culture was cultured statically at 37° C. in anaerobic environment and the turbidity (OD value) at 660 nm was measured with a spectrophotometer 24 hours, 48 hours, and 72 hours later. Moreover, the relation between OD value and the duration of culture is illustrated in a line graph of FIG. 1. Moreover, OD values at a duration of time of 72 hours are illustrated in a bar graph of FIG. 2.

SMILES	mean number of cells of Faecalibacterium (log10) ([1]; 0 week)	mean number of cells of Faecalibacterium per g feces ([1]; 0 week)	change of cell number from 0 weeks (in words) ([1]; 6 weeks)	Significant difference (vs 0 week) ([1]; 6 weeks)	mean number of cells of Faecalibacterium (log10) ([1]; 6 weeks)	mean number of cells of Faecalibacterium per g feces ([1]; 6 weeks)	cell number of Faecalibacterium over study period (in words) [1]	change of cell number from 0 weeks (in words) ([1]; 12 weeks)	Significant difference (vs 0 week) ([1]; 12 weeks)	mean number of cells of Faecalibacterium (log10) ([1]; 12 weeks)	mean number of cells of Faecalibacterium per g feces ([1]; 12 weeks)	OD values versus control and other oligosaccharides (in words) ([2]; 24 hours, 48 hours and 72 hours)	turbidity (OD value) at 660 nm ([2]; duration of culture 0 hour)	turbidity (OD value) at 660 nm ([2]; duration of culture 24 hours)	turbidity (OD value) at 660 nm ([2]; duration of culture 48 hours)	turbidity (OD value) at 660 nm ([2]; duration of culture 72 hours)	increase of cell number from 0 weeks ([1]; 6 weeks)	increase of cell number from 0 weeks ([1]; 12 weeks)
OC[C@H]1O[C@H](O[C@H]2[C@H](O)[C@@H](O)C(O)O[C@@H]2CO)[C@H](O)[C@@H](O)[C@@H]1O (mixture of isomers) [Maltose, maltose]	6.88 cells log10/g feces	7.6 × 10^6 cells/g feces	slightly decreased	Not found	6.77 cells log10/g feces	5.8 × 10^6 cells/g feces	did not increase	slightly increased	Not found	7.12 cells log10/g feces	1.3 × 10^7 cells/g feces	–	–	–	–	–	–	–
OC[C@H]1O[C@@](CO)(OC[C@@]2(O[C@H]3O[C@H](CO)[C@@H](O)[C@H](O)[C@H]3O)O[C@H](CO)[C@@H](O)[C@@H]2O)[C@@H](O)[C@@H]1O [1-kestose]	6.57 cells log10/g feces	3.7 × 10^6 cells/g feces	–	Not found	7.16 cells log10/g feces	1.4 × 10^7 cells/g feces	increased markedly	–	Found	7.54 cells log10/g feces	3.5 × 10^7 cells/g feces	markedly greater	0.063	0.345	0.885	1.803	≥ 3.5 times	≥ 9 times
OC[C@H]1O[C@@H](O[C@H]2[C@H](O)[C@@H](O)[C@@H](O[C@]3(CO)O[C@H](CO)[C@@H](O)[C@@H]3O)O[C@@H]2CO)[C@H](O)[C@@H](O)[C@H]1O [Lactosucrose, lactosucrose]	–	–	–	–	–	–	–	–	–	–	–	–	0.055	0.298	0.448	0.295	–	–
OC[C@H]1O[C@@](CO)(OC[C@@]2(OC[C@@]3(O[C@H]4O[C@H](CO)[C@@H](O)[C@H](O)[C@H]4O)O[C@H](CO)[C@@H](O)[C@@H]3O)O[C@H](CO)[C@@H](O)[C@@H]2O)[C@@H](O)[C@@H]1O [Nystose, nystose]	–	–	–	–	–	–	–	–	–	–	–	–	0.063	0.290	0.443	0.305	–	–
OC[C@H]1O[C@H](OC[C@H]2O[C@H](O[C@]3(CO)O[C@H](CO)[C@@H](O)[C@@H]3O)[C@H](O)[C@@H](O)[C@@H]2O)[C@H](O)[C@@H](O)[C@H]1O [Raffinose, raffinose]	–	–	–	–	–	–	–	–	–	–	–	–	0.052	0.251	0.191	0.246	–	–
